Measured values taken from US11220629B2, “Two-photon fluorescent compounds for specific lipid droplet imaging in live cells and deep tissues at ultralow concentration” (THE HONG KONG UNIVERSITY OF SCIENCE AND TECHNOLOGY, priority 2018, dated 2022).
Like-named read-outs stand apart in the source and are kept apart here.

Legend:
[1] = Absorption and fluorescence (photophysical properties) in solvent and solid state; type: physicochemical; details: for Φ (fluorescence quantum yield): integrating sphere; for Solvatochromism: toluene, diethyl ether, THF, acetone, DMSO
Procedure: ^1H and ^13C NMR spectra were measured on Bruker ARX 400 NMR spectrometers using CDCl3 as the deuterated solvent. High-resolution mass spectra (HRMS) were recorded on a Finnegan MAT TSQ 7000 Mass Spectrometer System operating in a MALDI-TOF mode. UV absorption spectra were taken on a Milton Ray Spectronic 3000 array spectrophotometer. Steady-state fluorescence spectra were recorded on a Perkin Elmer LS 55 spectrometer. Fluorescence images were collected on Olympus BX 41 fluorescence microscope. Laser confocal scanning microscope images were collected on Zeiss laser scanning confocal microscope (LSM7 DUO) and analyzed using ZEN 2009 software (Carl Zeiss). Two-photon fluorescence imaging was carried out on Olympus FV 300 laser confocal microscope. In two-photon experiments, the excitation wavelengths were 860 nm from a Ti:sapphire femtosecond laser source (coherent chamelon ultra) and the incident power on samples was modified by means of an attenuator and examined with a power monitor (Coherent). A multiphoton emission filter (FF01-750; Semrock) was used to block the IR laser.
The absorption and fluorescence (FL) data of the NAP AIEgens were investigated, and corresponding spectra are shown in FIGS. 5A-5H, 6A-6E, and FIG. 7.
This phenomenon is probably due to the changes in morphology and size of the aggregates formed in the water-THF mixture with high water fractions. […] It should be noted that the FL of NAP AIEgens in high water fraction (fw>90%) increased only several-fold compared with that in THF or CH3CN (FIG. 5G), probably because of formation of loosely packed aggregates. […] The FL spectra of NAP AIEgens were further measured in different polar solvents (FIGS. 6A-6E). […] As for NAP-CF3, the reason for blue-shifted FL in the solid state was likely its twisted structure (FIG. 2E), resulting in only […] π-π interaction rather than J-aggregation (FIG. 2B). […] The FL quantum yields (QYs, Table 1) of NAP AIEgens were measured by using an integrating sphere. […] It should be pointed out that the solid FL QY of NAP-Py^+ was low, likely due to a narrow energy gap and enhanced nonradiative transitions in NIR fluorescent dyes (FIG. 7). Furthermore, longer FL lifetimes of NAP AIEgens in the solid state than those in solvents also verified that restriction of intramolecular motion (RIM) can prohibit energy dissipation via non-radiative channels and enhance the FL of NAP AIEgens (Table 1).

LDs in HeLa cells [2] = test: Co-staining imaging with LDs dye Nile Red (CLSM); type: cell-based; details: 100 nM
Procedure: (§1) To confirm the intracellular location of NAP AIEgens in live cells, co-staining imaging experiments were performed. […] It is believed that positive-charged dyes like NAP-Py^+ can stain mitochondria due to the high negative membrane potential of mitochondria. To determine why other NAP AIEgens without positive charge locate in LDs, additional investigation was conducted.

LDs in HeLa cells [3] = test: One-photon LDs imaging at 50 nM; type: cell-based; details: 405 nm laser intensity 12%
Procedure: One-photon imaging experiments in HeLa cells stained with 50 nM of NAP-Ph, NAP-Br, NAP-CF3, and NAP-Py were performed, and Nile Red was used as comparison. […] As far as we know, this is the lowest concentration used for LDs imaging.

HeLa cells = test: Photostability under continuous confocal laser irradiation; type: cell-based; details: continuous irradiation for 10 min; NAP AIEgens 405 nm, Nile Red 543 nm, power 12%
Procedure: FIG. 20 is a graph depicting photostability of NAP AIEgens and Nile Red in HeLa cells under continuous irradiation (irradiation conditions: for NAP AIEgens, 405 nm laser, laser power of 12%; for Nile Red, 543 nm laser, laser power of 12%).
Considering the above-mentioned excellent bioimaging characteristics of these NAP AIEgens, further experiments were performed to evaluate their photostability and cytotoxicity. The photostability of NAP AIEgens was evaluated by continuous irradiation with confocal lasers, and data was collected every second. […] Furthermore, standard MTT (3-(4,5-dimethylthiazol-2-yl)-2,5-diphenyl-2H-tetrazolium) assays were performed to evaluate the cytotoxicity of NAP AIEgens in live cells.

[4] = test system: LDs in live mice liver tissue; test: Ex vivo two-photon imaging of live mice liver tissue; details: 1 μM, 1 h incubation, λex 860 nm
Procedure: TP fluorescence imaging outperforms imaging in one-photon mode as a result of high penetration in tissues and low background fluorescence because of near-infrared light excitation and low excitation power. […] After incubation with NAP-CF3 (1 μM) for 1 h, bright spherical spots with TP fluorescence of NAP-CF3 were observed (FIG. 18). For the live mice liver tissue without NAP-CF3, however, only low background fluorescence was obtained. […] To investigate whether NAP-CF3 could show LDs-specific staining in deep live mice liver tissue, TP fluorescence images along the Z-axis were captured. As shown in FIGS. 19A-19F, the fluorescent signal of the spherical spot could be clearly detected at different Z-axis depths even up to 70 μm. […] These excellent TP tissue imaging properties render NAP-CF3 a tremendous tool to visualize LDs-associated biomedical application in live tissues.

[5] = Two-photon absorption (TPA) cross section of aggregate suspensions, fluorescein as standard; type: physicochemical; details: aggregate suspension in H2O containing 1% CH3CN
Procedure: With fluorescein as the standard, the TPA cross sections (δ) of NAP AIEgens at different wavelengths were also measured (FIG. 8F). […] To further acquire the TPEF, NAP AIEgens in solid states were directly excited at 800 nm (intensity of about 0.35 mW).

[6] = test system: mitochondria in HeLa cells; test: Co-staining imaging with mitochondria dye MitoTracker Deep Red FM; type: cell-based; details: NAP-Py^+ 1 μM, MTDR 100 nM
Procedure: as §1

[7] = THF or CH3CN (CH3CN for NAP-Py^+)
[8] = THF or CH3CN (CH3CN for NAP-Py^+), listed as NAP-Py^+

For `COc1c(/C=C(\C#N)c2ccc(Br)cc2)ccc2cc(N(C)C)ccc12` [NAP-Br], the “αAIE = Φsolid/Φsolvent” value [1] was 9.00, the λem max ([1]; Solid) was 597 nm and the “τ (fluorescence lifetime)” value ([1]; Solid) was 4.43 ns. For the same compound, the “Φ (fluorescence quantum yield)” value ([1]; Solid) was 0.126, the Stokes shift [1, 7] was 116 nm and the λabs max [1, 7] was 409 nm. For the same compound, the λem max [1, 7] was 525 nm, the “τ (fluorescence lifetime)” value [1, 7] was under 0.60 ns and the “Φ (fluorescence quantum yield)” value [1, 7] was 0.014. The Solvatochromism [1] was “positive solvatochromism”, the “Pearson's coefficient with Nile Red” value (LDs in HeLa cells [2]) was 0.83 and the LDs staining (LDs in HeLa cells [3]) was “clear fluorescence”. For the same compound, the “Fluorescence intensity change under irradiation” value (“Fluorescence intensity change” below) (HeLa cells) was “dropped to some extent”.
For `COc1c(/C=C(\C#N)c2cc(C(F)(F)F)cc(C(F)(F)F)c2)ccc2cc(N(C)C)ccc12` [NAP-CF3], the “αAIE = Φsolid/Φsolvent” value [1] was 18.25, the λem max ([1]; Solid) was 555 nm and the “τ (fluorescence lifetime)” value ([1]; Solid) was 6.29 ns. The “Φ (fluorescence quantum yield)” value ([1]; Solid) was 0.292, the Stokes shift [1, 7] was 135 nm and the λabs max [1, 7] was 425 nm. The λem max [1, 7] was 560 nm, the “τ (fluorescence lifetime)” value [1, 7] was under 0.67 ns and the “Φ (fluorescence quantum yield)” value [1, 7] was 0.016. For the same compound, the Solvatochromism [1] was “positive solvatochromism”, the “Pearson's coefficient with Nile Red” value (LDs in HeLa cells [2]) was 0.85 and the LDs staining (LDs in HeLa cells [3]) was “clear fluorescence”. For the same compound, the “LDs staining in live mice liver tissue” value [4] was “excellent LDs staining property” and the “Z-axis depth at which fluorescent signal is detected” value [4] was “up to 70 μm”.
For `COc1c(/C=C(\C#N)c2ccc(-c3ccccc3)cc2)ccc2cc(N(C)C)ccc12` [NAP-Ph], the “αAIE = Φsolid/Φsolvent” value [1] was 14.89, the λem max ([1]; Solid) was 566 nm and the “τ (fluorescence lifetime)” value ([1]; Solid) was 1.42 ns. For the same compound, the “Φ (fluorescence quantum yield)” value ([1]; Solid) was 0.268, the Stokes shift [1, 7] was 114 nm and the λabs max [1, 7] was 409 nm. For the same compound, the λem max [1, 7] was 523 nm, the “τ (fluorescence lifetime)” value [1, 7] was under 0.34 ns and the “Φ (fluorescence quantum yield)” value [1, 7] was 0.018. For the same compound, the λem max ([1]; THF/water mixture, water fraction 90%, aggregates) was 557 nm, the Solvatochromism [1] was “positive solvatochromism” and the “Pearson's coefficient with Nile Red” value (LDs in HeLa cells [2]) was 0.90. The LDs staining (LDs in HeLa cells [3]) was “clear fluorescence” and the “Fluorescence intensity change” value (HeLa cells) was “dropped to some extent”.
For `COc1c(/C=C(\C#N)c2ccc(-c3ccncc3)cc2)ccc2cc(N(C)C)ccc12` [NAP-Py], the “αAIE = Φsolid/Φsolvent” value [1] was 14.47, the λem max ([1]; Solid) was 619 nm and the “τ (fluorescence lifetime)” value ([1]; Solid) was 1.39 ns. For the same compound, the “Φ (fluorescence quantum yield)” value ([1]; Solid) was 0.217, the “Φ (fluorescence quantum yield)” value ([1]; Solid, listed as NAP-Py^+) was 0.048 and the λem max ([1]; Solid, listed as NAP-Py^+) was 676 nm. For the same compound, the “τ (fluorescence lifetime)” value ([1]; Solid, listed as NAP-Py^+) was 1.32 ns, the Stokes shift [1, 7] was 128 nm and the λabs max [1, 7] was 413 nm. The λem max [1, 7] was 541 nm, the “τ (fluorescence lifetime)” value [1, 7] was under 0.67 ns and the “Φ (fluorescence quantum yield)” value [1, 7] was 0.015. The “Φ (fluorescence quantum yield)” value [1, 8] was 0.008, the Stokes shift [1, 8] was 85 nm and the λabs max [1, 8] was 455 nm. The λem max [1, 8] was 540 nm, the “τ (fluorescence lifetime)” value [1, 8] was under 0.58 ns and the “αAIE = Φsolid/Φsolvent” value ([1]; listed as NAP-Py^+) was 6.00. For the same compound, the Solvatochromism [1] was “positive solvatochromism”, the Solvatochromism ([1]; listed as NAP-Py^+) was “negative solvatochromism” and the “TPA cross section (δ) value” [5] was “very large”. For the same compound, the “Pearson's coefficient with Nile Red” value (LDs in HeLa cells [2]) was 0.88, the “Pearson's coefficient with MitoTracker Deep Red FM” value [6] was 0.89 and the LDs staining (LDs in HeLa cells [3]) was “clear fluorescence”. The “Fluorescence intensity change” value (HeLa cells) was “dropped to some extent”.
In the case of `CCN(CC)c1ccc2nc3c4ccccc4c(=O)cc-3oc2c1` [Nile Red, reference compound], the LDs staining (LDs in HeLa cells [3]) is reported as “non-specific staining in cytoplasm” and the “Fluorescence intensity change” value (HeLa cells) is reported as “drastically decreased”.
